Source: PMC11882969 (Nature Communications, 2025)
Values joined by “and” are separate entries in the source; they are usually repeats but may differ in a detail not shown here. Equal values may be shown once. Read-outs that look alike come from different tables or passages of the source.

Assays:
hCB1 = hCB1 (Homo sapiens, UniProt P21554); assay: bioSensAll ebBRET signaling profiling, hCB1; type: cell-based; parameters: host or cells: HEK293SL cells, transient PEI transfection; conditions: for Gi1 hCB1 response: Gi1 biosensor; for Gi1 hCB1 / GoB hCB1: single replicate values, FigS6a; for Emax [95% CI] / Emax: normalized to CP-55,940; for EC50: read-out: EC50 [95% CI]
hCB1, sequence (P21554 whole entry): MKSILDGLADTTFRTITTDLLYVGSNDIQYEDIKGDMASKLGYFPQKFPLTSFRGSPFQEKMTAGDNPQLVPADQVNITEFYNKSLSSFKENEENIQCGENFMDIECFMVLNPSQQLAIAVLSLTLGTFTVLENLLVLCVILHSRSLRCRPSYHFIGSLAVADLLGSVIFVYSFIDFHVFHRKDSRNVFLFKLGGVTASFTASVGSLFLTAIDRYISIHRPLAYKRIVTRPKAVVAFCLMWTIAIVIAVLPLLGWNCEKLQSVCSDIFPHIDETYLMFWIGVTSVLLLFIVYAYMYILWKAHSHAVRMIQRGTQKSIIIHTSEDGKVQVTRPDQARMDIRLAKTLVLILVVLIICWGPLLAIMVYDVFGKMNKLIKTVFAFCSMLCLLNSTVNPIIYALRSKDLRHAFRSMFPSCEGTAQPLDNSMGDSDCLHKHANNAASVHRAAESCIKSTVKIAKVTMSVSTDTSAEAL

CB1 (rCB1) [1] = biological target: T1, CB1 (rCB1) (Rattus norvegicus, UniProt P20272); assay: Radioligand competition binding, [3H]-CP-55,940, rat brain membranes; conditions: for pKi [95% CI]: rCB1; for Ki: read-out: Ki [95% CI], rCB1, [3H]-CP-55,940
T1 sequence (P20272 whole entry): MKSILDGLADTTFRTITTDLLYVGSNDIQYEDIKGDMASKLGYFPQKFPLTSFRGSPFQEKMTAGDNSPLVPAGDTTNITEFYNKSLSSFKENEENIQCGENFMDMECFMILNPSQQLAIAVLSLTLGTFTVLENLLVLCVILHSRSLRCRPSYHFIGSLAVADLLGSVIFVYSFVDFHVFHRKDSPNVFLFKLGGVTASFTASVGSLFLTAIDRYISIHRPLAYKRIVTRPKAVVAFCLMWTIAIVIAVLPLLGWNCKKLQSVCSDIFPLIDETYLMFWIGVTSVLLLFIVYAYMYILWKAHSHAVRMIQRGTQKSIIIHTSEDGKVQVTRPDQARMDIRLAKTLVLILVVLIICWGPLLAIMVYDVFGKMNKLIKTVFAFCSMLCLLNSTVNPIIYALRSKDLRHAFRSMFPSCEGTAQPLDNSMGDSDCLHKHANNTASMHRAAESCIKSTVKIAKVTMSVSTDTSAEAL

CB1 (rCB1) [2] = biological target: T1, CB1 (rCB1); assay: Single-point radioligand displacement screen; type: binding; conditions: 10 µM, 1 µM or 300 nM by cell colour (not visible)
[3] = Log [Compound] (M) -13, individual replicate values

## COC(=O)[C@@H]1[C@@H]2CC[C@@H]2CN1C(=O)c1cc(C)n(-c2cccc(C(F)(F)F)c2)n1 [‘6448]
hCB1; Log [Compound] (M) -4.22186
  Gi1 hCB1 response: 143.498
  Gi1 hCB1: 89.2431
  GoB hCB1: 86.7412
hCB1; Log [Compound] (M) -4.63927
  Gi1 hCB1 response: 116.752
  Gi1 hCB1: 88.0098
  GoB hCB1: 85.932
hCB1; Log [Compound] (M) -5.05788
  Gi1 hCB1 response: 114.537
  Gi1 hCB1: 83.6623
  GoB hCB1: 87.6943
hCB1; Log [Compound] (M) -5.47381
  Gi1 hCB1 response: 101.197
  Gi1 hCB1: 80.8256
  GoB hCB1: 88.7014
hCB1; Log [Compound] (M) -5.89285
  Gi1 hCB1 response: 80.4274
  Gi1 hCB1: 71.5911
  GoB hCB1: 74.7104
hCB1; Log [Compound] (M) -6.31878
  Gi1 hCB1 response: 64.6261
  Gi1 hCB1: 53.785
  GoB hCB1: 55.1804
hCB1; Log [Compound] (M) -6.72585
  Gi1 hCB1 response: 36.0226
  Gi1 hCB1: 28.6559
  GoB hCB1: 28.2594
hCB1; Log [Compound] (M) -7.14267
  Gi1 hCB1 response: 33.4711
  Gi1 hCB1: 11.4665
  GoB hCB1: 15.0956
hCB1; Log [Compound] (M) -7.55284
  Gi1 hCB1 response: 2.182
  Gi1 hCB1: 4.6215
  GoB hCB1: 3.137
hCB1; Log [Compound] (M) -8
  Gi1 hCB1 response: -1.914
  Gi1 hCB1: 2.093
  GoB hCB1: 2.004
hCB1; Log [Compound] (M) -8.22186
  Gi1 hCB1 response: -2.63
  Gi1 hCB1: -0.06514
  GoB hCB1: -3.751
hCB1; Log [Compound] (M) -8.39794
  Gi1 hCB1 response: -2.8987
  Gi1 hCB1: 1.1836
  GoB hCB1: 1.464
hCB1; Log [Compound] (M) -8.68787
  Gi1 hCB1 response: 4.689
  Gi1 hCB1: -1.113
  GoB hCB1: -5.28
hCB1; Log [Compound] (M) -9.15521
  Gi1 hCB1 response: 0.03327
  Gi1 hCB1: -0.1114
  GoB hCB1: -2.294
hCB1; Log [Compound] (M) -9.61989
  Gi1 hCB1 response: -4.421
  Gi1 hCB1: 0.7519
  GoB hCB1: -1.629
hCB1; Log [Compound] (M) -10.0969
  Gi1 hCB1 response: -3.391
  Gi1 hCB1: 0.8753
  GoB hCB1: -3.751
hCB1; Log [Compound] (M) -10.5529
  Gi1 hCB1 response: -11.5156
  Gi1 hCB1: 1.9236
  GoB hCB1: -0.9636
hCB1; Log [Compound] (M) -11.0177
  Gi1 hCB1 response: -16.4171
  Gi1 hCB1: -0.281
  GoB hCB1: -2.384
hCB1; Log [Compound] (M) -11.4949
  Gi1 hCB1 response: -6.8826
  Gi1 hCB1: -0.1268
  GoB hCB1: -1.305
hCB1; Log [Compound] (M) -11.9208
  Gi1 hCB1 response: -5.674
  Gi1 hCB1: -0.1885
  GoB hCB1: 1.266
hCB1; Log [Compound] (M) -12.3979
  Gi1 hCB1 response: -5.204
  Gi1 hCB1: 1.723
  GoB hCB1: 0.7628
hCB1; Log [Compound] (M) -12.8861
  Gi1 hCB1 response: 5.741
  Gi1 hCB1: 0.4436
  GoB hCB1: -2.798
hCB1; [3]
  Gi1 hCB1 response: -12.366 and -4.51
hCB1; Log [Compound] (M) -13
  Gi1 hCB1: 0.1969 and 0.2278
  GoB hCB1: 1.32 and 1.356
hCB1; hCB1 Gi1
  pEC50 [95% CI]: 6.5 [6.4 – 6.5]
  Emax [95% CI]: 87 [86 – 88]
  EC50: 0.345 µM
hCB1; hCB1 GoB
  pEC50 [95% CI]: 6.5 [6.4 – 6.6]
  Emax [95% CI]: 90 [87 – 91]
  EC50: 0.31 µM
hCB1; hCB1 Gz
  pEC50 [95% CI]: 6.1 [5.9 – 6.4]
  Emax [95% CI]: 151 [130 –172]
  EC50: 0.728 µM
CB1 (rCB1) [1]
  pKi [95% CI]: 6.1 [5.9 – 6.3]
  Ki: 0.866 µM

## CC(=O)C(c1cccs1)N(C)C(=O)c1cc(C)n(-c2cccc(C(F)(F)F)c2)n1 (centres unmarked) [‘6829]
hCB1; Log [Compound] (M) -4.22186
  Gi1 hCB1 response: 50.5929
  Gi1 hCB1: 59.6278
  GoB hCB1: 46.0809
hCB1; Log [Compound] (M) -4.63927
  Gi1 hCB1 response: 80.4274
  Gi1 hCB1: 49.4067
  GoB hCB1: 48.6345
hCB1; Log [Compound] (M) -5.05788
  Gi1 hCB1 response: 60.8884
  Gi1 hCB1: 40.28
  GoB hCB1: 42.8439
hCB1; Log [Compound] (M) -5.47381
  Gi1 hCB1 response: 50.1453
  Gi1 hCB1: 35.5317
  GoB hCB1: 37.2331
hCB1; Log [Compound] (M) -5.89285
  Gi1 hCB1 response: 25.0333
  Gi1 hCB1: 23.7381
  GoB hCB1: 25.7777
hCB1; Log [Compound] (M) -6.31878
  Gi1 hCB1 response: 14.2679
  Gi1 hCB1: 13.3781
  GoB hCB1: 16.7141
hCB1; Log [Compound] (M) -6.72585
  Gi1 hCB1 response: 9.501
  Gi1 hCB1: 9.694
  GoB hCB1: 6.7333
hCB1; Log [Compound] (M) -7.14267
  Gi1 hCB1 response: -0.2577
  Gi1 hCB1: 3.188
  GoB hCB1: 2.399
hCB1; Log [Compound] (M) -7.55284
  Gi1 hCB1 response: -0.3025
  Gi1 hCB1: 5.377
  GoB hCB1: 1.374
hCB1; Log [Compound] (M) -8
  Gi1 hCB1 response: -3.011
  Gi1 hCB1: 4.359
  GoB hCB1: 2.831
hCB1; Log [Compound] (M) -8.22186
  Gi1 hCB1 response: 2.07
  Gi1 hCB1: 1.1836
  GoB hCB1: -4.488
hCB1; Log [Compound] (M) -8.39794
  Gi1 hCB1 response: -6.077
  Gi1 hCB1: 5.593
  GoB hCB1: 1.554
hCB1; Log [Compound] (M) -8.68787
  Gi1 hCB1 response: 2.45
  Gi1 hCB1: 1.615
  GoB hCB1: -3.931
hCB1; Log [Compound] (M) -9.15521
  Gi1 hCB1 response: 5.629
  Gi1 hCB1: 2.463
  GoB hCB1: -1.036
hCB1; Log [Compound] (M) -9.61989
  Gi1 hCB1 response: -3.749
  Gi1 hCB1: 0.7057
  GoB hCB1: -1.161
hCB1; Log [Compound] (M) -10.0969
  Gi1 hCB1 response: -4.958
  Gi1 hCB1: 1.353
  GoB hCB1: -3.463
hCB1; Log [Compound] (M) -10.5529
  Gi1 hCB1 response: -8.091
  Gi1 hCB1: 1.137
  GoB hCB1: 1.105
hCB1; Log [Compound] (M) -11.0177
  Gi1 hCB1 response: -9.456
  Gi1 hCB1: 3.142
  GoB hCB1: -0.532
hCB1; Log [Compound] (M) -11.4949
  Gi1 hCB1 response: -2.585
  Gi1 hCB1: 2.879
  GoB hCB1: 1.392
hCB1; Log [Compound] (M) -11.9208
  Gi1 hCB1 response: -4.1073
  Gi1 hCB1: 3.126
  GoB hCB1: 1.392
hCB1; Log [Compound] (M) -12.3979
  Gi1 hCB1 response: -11.8513
  Gi1 hCB1: 4.159
  GoB hCB1: 2.561
hCB1; Log [Compound] (M) -12.8861
  Gi1 hCB1 response: -4.7116
  Gi1 hCB1: 3.496
  GoB hCB1: 2.705
hCB1; [3]
  Gi1 hCB1 response: -0.3696 and -4.085
hCB1; Log [Compound] (M) -13
  Gi1 hCB1: 3.327 and 1.677
  GoB hCB1: -2.744 and -3.607
hCB1; hCB1 Gi1
  pEC50 [95% CI]: 5.4 [5.0 – 5.6]
  EC50: 4.06 µM
hCB1; hCB1 GoB
  pEC50 [95% CI]: 6.0 [5.8 – 6.2]
hCB1; hCB1 Gz
  pEC50 [95% CI]: 5.9 [6.0 – 6.2]
  EC50: 1.35 µM
hCB1; read-out: Emax [95% CI], hCB1 Gi1
  Emax: 68%
hCB1; read-out: Emax [95% CI], hCB1 GoB
  Emax: 49%
hCB1; read-out: Emax [95% CI], hCB1 Gz
  Emax: 70%
CB1 (rCB1) [1]
  pKi [95% CI]: 6.0 [5.8 – 6.2]
  Ki: 1.05 µM

## COC(=O)C(NC(=O)c1cc(C)n(-c2cccc(C#N)c2)n1)c1ccsc1 (centres unmarked) [‘31604]
CB1 (rCB1) [2]
  % 1H-CP-55,940 displacement (mean) from single point screen: 41.46%
CB1 (rCB1) [1]
  pKi [95% CI]: 6.1 [6.0 – 6.2]
